Test [1] concerns the target T1, Cholecystokinin receptor type A (Mus musculus, UniProt O08786).
T1 sequence (O08786 whole entry): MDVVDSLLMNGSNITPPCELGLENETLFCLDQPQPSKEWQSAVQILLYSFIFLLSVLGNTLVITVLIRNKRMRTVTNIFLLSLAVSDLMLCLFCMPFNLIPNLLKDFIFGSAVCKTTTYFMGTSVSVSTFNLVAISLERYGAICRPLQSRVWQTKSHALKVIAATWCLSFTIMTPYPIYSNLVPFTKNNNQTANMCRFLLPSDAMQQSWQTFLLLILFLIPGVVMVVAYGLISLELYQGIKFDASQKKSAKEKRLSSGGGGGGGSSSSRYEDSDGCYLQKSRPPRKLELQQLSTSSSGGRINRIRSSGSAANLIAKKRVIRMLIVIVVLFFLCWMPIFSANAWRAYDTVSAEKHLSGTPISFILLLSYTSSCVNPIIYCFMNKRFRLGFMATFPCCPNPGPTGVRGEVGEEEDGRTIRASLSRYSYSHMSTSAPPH
Put plainly: Concentration producing half-maximal inhibition of specific binding of [125I]- CCK-8 to CCK receptors on mouse pancreatic membranes (CCK-A).

Test [2] concerns the target T2, Gastrin/cholecystokinin type B receptor (Mus musculus, UniProt P56481).
T2 sequence (P56481 whole entry): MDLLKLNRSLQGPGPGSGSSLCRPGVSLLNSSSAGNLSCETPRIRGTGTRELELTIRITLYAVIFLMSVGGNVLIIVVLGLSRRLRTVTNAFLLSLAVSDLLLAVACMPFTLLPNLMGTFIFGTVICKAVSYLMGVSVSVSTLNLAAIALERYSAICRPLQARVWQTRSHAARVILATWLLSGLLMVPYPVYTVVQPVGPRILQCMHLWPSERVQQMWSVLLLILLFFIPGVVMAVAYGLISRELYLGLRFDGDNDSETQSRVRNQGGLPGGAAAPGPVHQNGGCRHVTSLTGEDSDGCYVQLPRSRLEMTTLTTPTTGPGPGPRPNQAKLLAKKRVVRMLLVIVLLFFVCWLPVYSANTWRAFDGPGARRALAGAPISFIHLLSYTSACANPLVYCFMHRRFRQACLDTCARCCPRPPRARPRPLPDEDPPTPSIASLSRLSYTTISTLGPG
Kind of test: Concentration producing half-maximal inhibition of specific binding of [125I]- CCK-8 to CCK receptors mouse forebrain membranes (CCK-B). It is filed as tissue-based, Brain.

Test [3] has as its target Cholecystokinin receptor (Mus musculus) (UniProt O08786+P56481). Kind of test: Ratio of CCK-A receptor to CCK-B receptor was determined. It is filed as protein assay.

Residues, ends and D or L forms follow the SMILES beside them. *: point of attachment. NHPhenethyl = c1ccc(CCN*)cc1; Boc = CC(C)(C)OC(=O)*

Broadly, the IC50 is the concentration that inhibits the measured activity by half. Low readings indicate greater potency, high ones weaker potency.

On to `CCCC[C@H](NC(=O)c1c[nH]c2ccccc12)C(=O)N1C[C@H](Cc2ccccc2)NC(=O)[C@@H]1CC(=O)O`, for which the IC50 in test [1] was 1400 nM; in test [2], greater than 100 µM.
Consider `CC(C)C[C@H](NC(=O)[C@H](Cc1c[nH]c2ccccc12)NC(=O)OC(C)(C)C)C(=O)N1C[C@@H](Cc2ccccc2)NC(=O)[C@H]1CC(=O)O`, for which the figures for the IC50 in test [1] and in test [2] were 6300 nM and 70 µM, respectively. Besides, the Ratio in test [3] stood at 0.09.
As for `CCCC[C@H](NC(=O)Cc1c[nH]c2ccccc12)C(=O)N1C[C@H](Cc2ccccc2)NC(=O)[C@@H]1CC(=O)O`, the IC50 in test [1] was found to be 7200 nM; in test [2], 1.2 µM. In addition, the Ratio in test [3] turned out to be 6.
Take `CC(C)C[C@H](NC(=O)[C@@H](Cc1c[nH]c2ccccc12)NC(=O)OC(C)(C)C)C(=O)N1CC(=O)N[C@@H](Cc2ccccc2)C1`: the IC50 in test [1] is 5500 nM; in test [2], greater than 100 µM.
For `CCOC(=O)N[C@@H](Cc1c[nH]c2ccccc12)C(=O)N[C@@H](CC(C)C)C(=O)N1CC(=O)N[C@@H](Cc2ccccc2)C1`, the values for the IC50 in test [1] and in test [2] were 430 nM and 38 µM, respectively. In test [3], the Ratio was 0.011.
As for `CC(C)C[C@H](NC(=O)[C@@H](N)Cc1c[nH]c2ccccc12)C(=O)N1C[C@H](Cc2ccccc2)NC(=O)[C@@H]1CC(=O)O`, the IC50 in test [1] amounted to 51000 nM; in test [2], 15 µM. The Ratio in test [3] came to 3.4.
For the compound `CC(C)C[C@H](NC(=O)[C@H](Cc1c[nH]c2ccccc12)NC(=O)OCc1ccccc1)C(=O)N1CC(=O)N[C@@H](Cc2ccccc2)C1`, the IC50 turned out to be 64 nM in test [1] and 18 µM in test [2]. For the same compound, in test [3], the Ratio amounted to 0.0036.
For the compound `CC(C)C[C@H](NC(=O)CCc1c[nH]c2ccccc12)C(=O)N1C[C@H](Cc2ccccc2)NC(=O)[C@@H]1CC(=O)O`, the IC50 was 56000 nM in test [1] and 8.9 µM in test [2]. In addition, the Ratio in test [3] came to 6.3.
Turning to `CC(C)C[C@H](NC(=O)[C@H](Cc1c[nH]c2ccccc12)NC(=O)OC(C)(C)C)C(=O)N1C[C@@H](Cc2ccccc2)NC(=O)[C@@H]1CC(=O)O`, the IC50 turned out to be 3600 nM in test [1] and 17 µM in test [2]. For the same compound, the Ratio in test [3] turned out to be 0.21.
Consider `CC(C)C[C@H](NC(=O)[C@H](Cc1c[nH]c2ccccc12)NC(=O)OC(C)(C)C)C(=O)N[C@@H](CC(=O)O)C(=O)NCCc1ccccc1` (Boc-Trp-Leu-Asp-NHPhenethyl), for which the Ratio in test [3] was found to be 10.
For `CC(C)C[C@H](NC(=O)[C@H](Cc1c[nH]c2ccccc12)NC(=O)OC(C)(C)C)C(=O)N1C[C@H](CCc2ccccc2)NC(=O)[C@@H]1CC(=O)O`, the IC50 is 630 nM in test [1] and 8.2 µM in test [2]. The Ratio in test [3] is 0.077.
`CC(C)C[C@H](NC(=O)[C@H](Cc1c[nH]c2ccccc12)NC(=O)OCc1ccccc1)C(=O)N1CC(=O)N[C@H](Cc2ccccc2)C1`: the IC50 stood at 14 nM in test [1] and 15 µM in test [2]. Besides, in test [3], the Ratio is 0.0009.
For `CC(C)C[C@H](NC(=O)[C@H](Cc1c[nH]c2ccccc12)NC(=O)OC(C)(C)C)C(=O)N1C[C@H](Cc2ccccc2)NC(=O)[C@@H]1CC(=O)O`, in that order: 840 nM, 61 µM and 0.014.
Take `CC(C)C[C@H](NC(=O)[C@H](Cc1c[nH]c2ccccc12)NC(=O)OC(C)(C)C)C(=O)N1CC(=O)N[C@@H](Cc2ccccc2)C1`: the figures for the IC50 in test [1] and in test [2] were 270 nM and 37 µM, respectively. Also, in test [3], the Ratio was 0.0073.
As to `CC(C)C[C@H](NC(=O)[C@H](Cc1c[nH]c2ccccc12)NC(=O)OC(C)(C)C)C(=O)N1CC(=O)N[C@H](Cc2ccccc2)C1`, the IC50 in test [1] is 46 nM; in test [2] it was 39 µM. In test [3], the Ratio came out at 0.0012.
As to `CC(C)C[C@H](NC(=O)[C@H](Cc1c[nH]c2ccccc12)NC(=O)/C=C/c1ccccc1)C(=O)N1CC(=O)N[C@@H](Cc2ccccc2)C1`, the IC50 is 520 nM in test [1] and greater than 100 µM in test [2].
With `CC(C)C[C@H](NC(=O)C(NC(=O)OC(C)(C)C)c1ccccc1)C(=O)N1CC(=O)N[C@@H](Cc2ccccc2)C1` (stereo not given in full), the concentration for half-maximal inhibition (IC50) in test [1] was determined as 24000 nM; in test [2], 10 µM. Moreover, in test [3], the Ratio was determined as 2.4.
For `CC(C)C[C@H](NC(=O)[C@H](Cc1c[nH]c2ccccc12)NC(=O)OC(C)(C)C)C(=O)N1C[C@H](c2ccccc2)NC(=O)[C@@H]1CC(=O)O`, in that order: 9400 nM, 9.4 µM and 1.
For `CC(C)C[C@H](NC(=O)[C@H](Cc1c[nH]c2ccccc12)NC(=O)OC(C)(C)C)C(=O)N1C[C@H](Cc2ccccc2)NC(=O)[C@H]1CC(=O)O` (mixture of isomers), in that order: 2800 nM, 7.4 µM and 0.38.
`CC(C)C[C@H](NC(=O)Cc1c[nH]c2ccccc12)C(=O)N1C[C@H](Cc2ccccc2)NC(=O)[C@@H]1CC(=O)O`: the results for the concentration for half-maximal inhibition (IC50) in test [1] and in test [2] were 13000 nM and 2.5 µM, respectively. The Ratio in test [3] was 5.2.
